Results as given in patent US9376424B2, “Methods for treating post traumatic stress disorder” (AZEVAN PHARMACEUTICALS, INC., priority 2010, dated 2016).

Tests used:
V1b receptor = molecular target: T1, V1b receptor (Homo sapiens, UniProt P47901); assay: Human or rat vasopressin V1b cell-based receptor binding assay; details: selectivity table; read-out: inhibition data (Ki, nM), Receptor V1b
T1 construct: expressed in transfected cells; host or cells: CHO-K1 (ATCC), vector PCI-neo
T1 sequence (P47901 1-424): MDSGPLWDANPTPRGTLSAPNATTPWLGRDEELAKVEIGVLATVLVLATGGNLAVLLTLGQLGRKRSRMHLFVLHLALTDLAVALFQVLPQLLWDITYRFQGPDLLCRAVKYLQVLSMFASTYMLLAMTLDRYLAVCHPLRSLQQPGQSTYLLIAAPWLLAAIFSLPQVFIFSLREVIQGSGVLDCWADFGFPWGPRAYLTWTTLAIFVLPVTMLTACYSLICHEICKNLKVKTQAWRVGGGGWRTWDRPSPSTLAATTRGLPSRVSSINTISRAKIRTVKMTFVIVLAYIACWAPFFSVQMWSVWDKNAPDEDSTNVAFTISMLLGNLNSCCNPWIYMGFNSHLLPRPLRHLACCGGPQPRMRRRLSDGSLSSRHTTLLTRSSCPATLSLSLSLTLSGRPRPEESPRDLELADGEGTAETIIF
Excerpt: Human vasopression V1b receptor-expressing cells. Human vasopressin receptor 1b (hV1b) cDNA (see, Lolait et al., “Extrapituitary expression of the rat V1b vasopressin receptor gene” Proc. Natl. Acad. Sci. USA. 92:6783-7 (1995); de Keyzer et al., “Cloning and characterization of the human V3(V1b) pituitary vasopressin receptor” FEBS Lett. 356:215-20 (1994); Sugimoto et al., “Molecular cloning and functional expression of a cDNA encoding the human V1b vasopressin receptor” J. Biol. Chem. 269:27088-92 (1994)) was inserted into a mammalian cell expression vector PCI-neo (Promega) at EcoR1 site. The recombinant plasmid carrying hV1b cDNA was identified from transformed E. Coli clones and used for the transfection of Chinese hamster ovary cell (CHO-K1, ATCC). Two micrograms of hV1b receptor DNA was introduced into 10^5 CHO cells cultured in 6-well plate, using Fugene-6 mediated transfection technique (Boehringer Mannheim). Twenty-four hrs post transfection, Cells were then cultured under selection of G-418 (0.25 mg/ml) supplemented to the culture medium. Three days later, limited dilution was carried out to obtain single cell clones in 96-well plates. […]
Human or rat vasopression V1b cell-based receptor binding assay. […] Samples were counted in a liquid scintillation counter (Beckman LS3801). IC50 and Ki values were calculated using Prism Curve fitting software. […]

V2 = V2 (Homo sapiens, UniProt P30518); assay: V2 receptor inhibition data (Ki); assay type: binding; details: selectivity table
resident male rats = assay: Resident-Intruder Model of Stress and Aggression in Rats (neuroimaging); assay type: in vivo, rat; details: oral administration, intruder stimulus
Excerpt: Resident-Intruder Model of Stress and Aggression in Rats. Neuroimaging is used to assess the blockade of stress/arousal with test compound compared to control. The effect of AVN251-HCl on functional circuitry was examined using the imaging method for awake rats. Additional details of the assay are described in Ferris et al. (2008).
Male rats in the company of a female cage mate will piloerect in the presence of a male intruder. This piloerection is a sign of stress and aggressive intent and is associated with activation of stress/arousal circuits in the brain. […] Resident male rats from six male:female pairs were imaged while fully awake. During a single imaging session, these males were treated with vehicle or AVN251-HCl (5 mg/kg).
The total volume of brain activation for resident males confronted with their mate alone, mate plus intruder, and mate plus intruder in the presence of AVN251-HCl can be viewed as 3D models. While there appears to be a general decrease in BOLD signal in major regions with AVN251-HCl treatment, sexual motivation, as assessed by the presentation of a novel receptive female, was unaffected by V1a receptor blockade.
Stress circuit activation in response to an intruder male is assessed by obtaining brain scans viewed from a caudal/dorsal perspective as translucent shells. The localization of activated voxels is mapped as 3D volumes of activation, which are composed of 10 subjects each. Once fully registered and segmented, the statistical responses for each subject are averaged on a voxel-by-voxel basis. Those averaged voxels exceeding a 2.0% threshold are shown in their appropriate spatial location. Functional images are acquired on awake rats at 4.7 T.
The 3D volumes of activation are composed from results obtained with 10 subjects in each condition. […] Particular olfactory systems measured included the anterior olfactory nucleus, olfactory tubercle, piriform cortex, n. laterial olfactory tract, and entrorhinal cortex. Particular dopaminergic systems measured included the prelimbic cortex, accumbens, ventral pallidum, medial dorsal thalamus, and ventral tegmentum.
Awake rats were imaged when presented with their mate+an intruder, a highly stressful stimulus.

V2, sequence (P30518 whole entry): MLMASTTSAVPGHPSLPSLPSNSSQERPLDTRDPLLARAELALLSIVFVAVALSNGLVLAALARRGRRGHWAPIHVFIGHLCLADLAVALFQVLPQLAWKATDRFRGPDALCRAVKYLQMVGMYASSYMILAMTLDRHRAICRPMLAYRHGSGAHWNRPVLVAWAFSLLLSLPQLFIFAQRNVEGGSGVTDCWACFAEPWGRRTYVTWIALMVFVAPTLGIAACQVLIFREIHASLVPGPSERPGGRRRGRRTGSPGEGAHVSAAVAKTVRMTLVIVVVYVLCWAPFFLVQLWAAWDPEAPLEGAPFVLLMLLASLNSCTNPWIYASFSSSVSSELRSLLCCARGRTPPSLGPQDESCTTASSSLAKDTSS

Q: How did the Ki (V1b receptor) turn out when C[C@@H](NC(=O)[C@@H](CC(=O)N1CCC(N2CCCCC2)CC1)N1C(=O)[C@@H](N2C(=O)OC[C@@H]2c2ccccc2)[C@H]1C=Cc1ccccc1)c1ccccc1 [Example 224, 2(R)-[[4-(Piperidinyl)piperidinyl]carbonylmethyl]-2-[3(S)-(4(S)-phenyloxazolidin-2-on-3-yl)-4(R)-(2-styryl)azetidin-2-on-1-yl]acetic acid N—[(R)-α-methylbenzyl]amide] was run?
A: > 1000 nM

Q: What about the Ki (V2) of the same compound?
A: > 1000 nM

Q: And the “stress and aggressive motivation compared to controls” value (resident male rats)?
A: blocked stress and aggressive motivation
